Drawing on patent publication US20260152487A1 (Sitryx Therapeutics Limited, priority 2021, published 2026), this text covers Emax and EC50 for 13 compounds.

The target in this test is T1, recombinant human PKM2 (Homo sapiens, UniProt P14618).
T1 construct: His (N); purchased R&D Systems
As to the kind of experiment: Human PKM2 activation assay (Kinase-Glo Plus luminescent detection of generated ATP). The format is biochemical. As to conditions: for Emax: percentage activation normalised to DMSO vehicle (LOW) and 5 μM TEPP-46 (HIGH), read-out: hPKM2 Emax; for EC50: recombinant human PKM2 activation, 4-parameter logistic fit, read-out: hPKM2 EC50. The method, then:
Compound activation of recombinant human PKM2 pyruvate kinase activity was determined by biochemical assay. N-terminal His-tagged hPKM2 was sourced from R&D Systems and its substrates phosphoenolpyruvate (PEP) and ADP from Sigma-Aldrich and 2Bscientific Ltd, respectively. The Kinase-Glo® Plus luminescence assay was from Promega. All other reagents were from Sigma-Aldrich. Test Compounds were prepared as 10 mM DMSO stocks and dilution series prepared in DMSO for direct dilution into Assay Buffer comprising 50 mM imidazole, 50 mM KCl, 7 mM MgCl2, 0.01% Tween20, 0.05% BSA (pH 7.2).
Human PKM2 was diluted into Assay Buffer comprising 50 mM imidazole, 50 mM KCl, 7 mM MgCl2, 0.01% Tween20, 0.05% BSA (pH 7.2) to a final concentration of […]. Enzyme-Assay Buffer mix was dispensed into a 384-well shallow-well white-walled plate (PerkinElmer) and Test Compounds added by acoustic dispense (Echo®, Labcyte Inc.).
After 60 minutes' incubation on an orbital shaker (300 rpm, 26° C.), enzyme activity was quantified by the luminescent detection of generated ATP. Kinase-Glo® Plus reagent was added to each well and the plates incubated for a further 15 minutes on an orbital shaker in the dark (300 rpm, 26° C.) before luminescence measurement on a plate reader (PHERAstar® FSX, BMG Labtech).
Percentage activation was calculated by normalising […] signals to plate LOW (DMSO vehicle) and HIGH (5 μM TEPP-46) controls. EC50 and Emax values were determined from 4-parameter logistic fits of compound concentration-response curves.
Background: In Kinase-Glo more light means more ATP remaining.

T1 sequence (P14618 2-531 limits assumed): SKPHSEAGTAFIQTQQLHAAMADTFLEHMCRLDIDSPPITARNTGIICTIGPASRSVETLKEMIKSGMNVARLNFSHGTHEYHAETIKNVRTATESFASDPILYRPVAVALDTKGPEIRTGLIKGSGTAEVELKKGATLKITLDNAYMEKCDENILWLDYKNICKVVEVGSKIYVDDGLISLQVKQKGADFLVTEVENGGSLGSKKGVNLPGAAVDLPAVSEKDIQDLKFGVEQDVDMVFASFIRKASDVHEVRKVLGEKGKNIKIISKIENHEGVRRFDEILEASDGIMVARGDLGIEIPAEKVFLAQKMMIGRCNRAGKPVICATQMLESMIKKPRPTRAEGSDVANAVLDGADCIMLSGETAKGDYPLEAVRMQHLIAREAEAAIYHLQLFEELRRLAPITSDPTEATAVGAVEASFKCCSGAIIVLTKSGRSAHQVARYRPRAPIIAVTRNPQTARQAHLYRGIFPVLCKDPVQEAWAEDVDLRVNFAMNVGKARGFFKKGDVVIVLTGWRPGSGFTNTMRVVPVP

Regarding `COc1cccc(S(=O)(=O)c2ccc3c(=O)n(Cc4ccc(OC)nc4)ncc3c2)c1` [Example 116, 6-(3-methoxyphenylsulfonyl)-2-((6-methoxypyridin-3-yl)methyl)phthalazin-1(2H)-one], the Emax came out at 96.1% and the EC50 was 59.5 nM.

In the case of `COc1ccc(Cn2ncc3cc(S(=O)(=O)c4ccsc4C(N)=O)ccc3c2=O)cn1` [Example 117, 3-(2-((6-methoxypyridin-3-yl)methyl)-1-oxo-1,2-dihydrophthalazin-6-ylsulfonyl)thiophene-2-carboxamide], the Emax came out at 77% and the 50% effective concentration (EC50) turned out to be 177 nM.

As for `COc1ccc(Cn2ncc3cc(S(=O)(=O)c4csc(C(N)=O)c4)ccc3c2=O)cn1` [Example 118, 4-(2-((6-methoxypyridin-3-yl)methyl)-1-oxo-1,2-dihydrophthalazin-6-ylsulfonyl)thiophene-2-carboxamide], the Emax is 93.2% and the EC50 was 60.2 nM.

As for `Nc1cccc(Cn2ncc3cc([S+]([O-])c4ccccc4)ccc3c2=O)c1` (centres unmarked) [Example 119, 2-(3-aminobenzyl)-6-(phenylsulfinyl)phthalazin-1(2H)-one], the Emax is 98.8% and the EC50 was 348 nM.

Take `N=S(=O)(c1ccccc1)c1ccc2c(=O)n(Cc3cccc(N)c3)ncc2c1` (centres unmarked) [Example 120, 2-(3-aminobenzyl)-6-(phenylsulfonimidoyl)phthalazin-1(2H)-one]: the Emax was found to be 103% and the EC50 was 234 nM.

As to `Nc1cccc(Cn2ncc3cc(S(=O)(=O)c4cccnc4)ccc3c2=O)c1` [Example 121, 2-(3-aminobenzyl)-6-(pyridin-3-ylsulfonyl)phthalazin-1(2H)-one], the maximal effect (Emax) stood at 116% and the EC50 is 620 nM.

As for `COc1ccc(Cn2ncc3cc(S(=O)(=O)Nc4ccccc4)ccc3c2=O)cn1` [Example 122, 2-((6-methoxypyridin-3-yl)methyl)-1-oxo-N-phenyl-1,2-dihydrophthalazine-6-sulfonamide], the Emax came to 60% and the 50% effective concentration (EC50) was 590 nM.

For `COc1ccc(Cn2ncc3cc(S(=O)(=O)c4cccc5[nH]ncc45)ccc3c2=O)cn1` [Example 123, 6-((1H-indazol-4-yl)sulfonyl)-2-((6-methoxypyridin-3-yl)methyl)phthalazin-1(2H)-one], the Emax was 74.4% and the EC50 was 123 nM.

Turning to `COc1ccc(Cn2ncc3cc(S(=O)(=O)c4ccc(OC(F)F)nc4)ccc3c2=O)cn1` [Example 124, 6-((6-(difluoromethoxy)pyridin-3-yl)sulfonyl)-2-((6-methoxypyridin-3-yl)methyl)phthalazin-1(2H)-one], the Emax is 107% and the half-maximal effective concentration (EC50) was determined as 31.3 nM.

On to `COc1ccc(Cn2ncc3cc(OC4(c5ccccc5)COC4)ncc3c2=O)cn1` [Example 125, 3-((6-methoxypyridin-3-yl)methyl)-7-((3-phenyloxetan-3-yl)oxy)pyrido[3,4-d]pyridazin-4(3H)-one], for which the Emax was found to be 88.8% and the EC50 came out at 458 nM.

For `COc1ccc(Cn2ncc3cc(S(=O)(=O)c4ccc5c(c4)CCO5)ccc3c2=O)cn1` [Example 126, 6-((2,3-dihydrobenzofuran-5-yl)sulfonyl)-2-((6-methoxypyridin-3-yl)methyl)phthalazin-1(2H)-one], the maximal effect (Emax) is 95.3% and the concentration giving a half-maximal response (EC50) turned out to be 18.9 nM.

Turning to `COc1ccc(Cn2ncc3cc(S(=O)(=O)c4cnc5c(c4)OCCO5)ccc3c2=O)cn1` [Example 130, 6-((2,3-dihydro-[1,4]dioxino[2,3-b]pyridin-7-yl)sulfonyl)-2-((6-methoxypyridin-3-yl)methyl)phthalazin-1(2H)-one], the maximal effect (Emax) was determined as 57.1% and the EC50 stood at 224 nM.

Regarding `COc1ccc(Cn2ncc3cc(S(=O)(=O)c4cc[nH]n4)ccc3c2=O)cn1` [Example 140, 6-((1H-pyrazol-3-yl)sulfonyl)-2-((6-methoxypyridin-3-yl)methyl)phthalazin-1(2H)-one], the Emax is 107% and the EC50 was 192 nM.

Usually Emax stands for the size of the effect at its maximum, as opposed to the concentration needed. As usually defined, the EC50 is the concentration at which the effect is half-maximal.
